According to patent US9352015B2, “Antimicrobial peptides” (priority 2009, dated 2016):
≈ marks a conversion by molar mass, not a printed value. Where two headings read alike, the source gives them in different places. Where a SMILES comes first, the peptide text is derived from it.

Legend:
Pseudomonas aeruginosa = conditions: geometric mean, 6 different isolates, 24 hours at 37° C.
human erythrocytes = test: Hemolytic activity against human erythrocytes (HC50 / MHC, microtiter dilution); assay type: cell-based
Method: (§1) Hemoglobin release was determined spectrophotometrically at 570 nm. The hemolytic activity was determined as the peptide concentration that caused 50% hemolysis of erythrocytes after 18 h (HC50). […] HC50 was determined by a plot of peptide concentration versus percent lysis.

[1] = as above; assay type: cell-based; conditions: 1% human erythrocytes, pH 7.4
Method: as §1

[2] = tested on: Methicillin Resistant Staphylococcus aureus (MRSA) and Staphylococcus aureus; assay type: cell-based
Outline: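 MICs by microtiter broth dilution in triplicate determinations, mostly LB no-salt medium (sometimes MH or BHI), final inoculum 5×10^5 CFU/ml (1×10^5 CFU/ml in the MH variant), 24 h at 37 °C. MIC is the lowest peptide concentration inhibiting growth; tested on 20 clinical MRSA and S. aureus isolates.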

Acinetobacter baumannii = assay type: cell-based; conditions: for Acinetobacter baumannii MICGM: geometric mean, 11 different isolates, 24 hours at 37° C.
Outline: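 Microtiter broth dilution in triplicate, mainly LB no-salt medium (MH or BHI in some cases), peptides serially diluted, final inoculum 5×10^5 CFU/ml (1×10^5 CFU/ml in MH variant); 24 h at 37° C. MIC is the lowest peptide concentration inhibiting growth, given in micromolar against clinical isolates.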

[3] = Circular dichroism spectroscopy (helical structure); assay type: physicochemical
Gram-negative bacteria = test: MIC against Gram-negative bacteria (V681 analog studies); assay type: cell-based
Method: Minimal inhibitory concentrations (MICs) are determined using a standard microtiter dilution method, with 3 sets of determinations, in LB (Luria-Bertani) no-salt medium (10 g of tryptone and 5 g of yeast extract per liter). In some cases, Mueller Hinton (MH) medium or Brain Heart Infusion (BHI) medium is used.
Briefly, cells were grown overnight at 37° C. in LB and diluted in the same medium. Serial dilutions of the peptides are added to the microtiter plates in a volume of 100 μl followed by 10 μl of bacteria to give a final inoculum of 5×10^5 colony-forming units/ml. Plates are incubated at 37° C. for 24 hours and MICs determined as the lowest peptide concentration that inhibited growth. Alternatively, minimal inhibitory concentrations are determined using a standard microtiter dilution method in a Mueller-Hinton (MH) medium. Briefly, cells are grown overnight at 37° C. in MH broth and diluted in the same medium. In some cases, serial dilutions of the peptides are added to the microtiter plates in a volume of 100 μl followed by 10 μl of bacteria to give a final inoculum of 1×10^5 colony-forming units/ml. Plates are incubated at 37° C. for 24 hours and MICs are determined as the lowest peptide concentration that inhibited growth.

Molecule | Pseudomonas aeruginosa MICGM (Pseudomonas aeruginosa) [µM] | HC50 at 18 h ([1]; human) [µM] | MIC GM (geometric mean) [2] [µM] | Antimicrobial Activity MIC against A. baumannii (Acinetobacter baumannii) [µM] | MIC GM (geometric mean) (Acinetobacter baumannii) [µM] | Acinetobacter baumannii MICGM (Acinetobacter baumannii) [µM] | Hemolytic activity HC50 (human erythrocytes) [µM] | further results
CC(=O)N[C@H](CCCCN)C(=O)N[C@H](CC(C)C)C(=O)N[C@H](CCCCN)C(=O)N[C@H](CO)C(=O)N[C@H](CC(C)C)C(=O)N[C@H](CC(C)C)C(=O)N[C@H](CCCCN)C(=O)N[C@@H](C(=O)N[C@H](CC(C)C)C(=O)N[C@H](CO)C(=O)N[C@H](CCCCN)C(=O)N[C@H](C)C(=O)N[C@H](CCCCN)C(=O)N[C@H](CCCCN)C(=O)N[C@H](CCCCN)C(=O)N[C@H](CCCCN)C(=O)N[C@H](CC(C)C)C(=O)N[C@H](CCCCN)C(=O)N[C@@H](C(=O)N[C@H](CC(C)C)C(=O)N[C@H](CC(C)C)C(=O)N[C@H](CCCCN)C(=O)N[C@H](C)C(=O)N[C@H](CC(C)C)C(=O)N[C@H](CO)C(=O)N[C@H](CCCCN)C(N)=O)[C@H](C)O)[C@H](C)O [Peptide D16, Ac-KLKSLLKTLSKAKKKKLKTLLKALSK-amide] | 1.5 | 1340 | 48.3 (≈ 144 µg/mL) | 0.4 | 0.4 (≈ 1.19 µg/mL) | 0.4 |  | Fold less hemolytic than D1 (human erythrocytes): 9.5; Fold more active than D1 against A. baumannii (Acinetobacter baumannii): ~3 fold
PLL: V681 with L-Leu at position 11 (polar face), SEQ ID NO:13 (KWKSFLKTFKLAVKTVLHTALKAISS) |  |  |  |  |  |  |  | [θ]222 molar ellipticity ([3]; benign conditions (100 mM KCl, 50 mM aq. PO4, pH 7)): −10,850
CC(=O)N[C@H](CCCCN)C(=O)N[C@H](CC(C)C)C(=O)N[C@H](CCCCN)C(=O)N[C@H](CO)C(=O)N[C@H](CC(C)C)C(=O)N[C@H](CC(C)C)C(=O)N[C@H](CCCCN)C(=O)N[C@@H](C(=O)N[C@H](CC(C)C)C(=O)N[C@H](CO)C(=O)N[C@H](CCCCN)C(=O)N[C@H](CC(C)C)C(=O)N[C@H](CCCCN)C(=O)N[C@H](CCCCN)C(=O)N[C@H](CCCCN)C(=O)N[C@H](CCCCN)C(=O)N[C@H](CC(C)C)C(=O)N[C@H](CCCCN)C(=O)N[C@@H](C(=O)N[C@H](CC(C)C)C(=O)N[C@H](CC(C)C)C(=O)N[C@H](CCCCN)C(=O)N[C@H](CC(C)C)C(=O)N[C@H](CC(C)C)C(=O)N[C@H](CO)C(=O)N[C@H](CCCCN)C(N)=O)[C@H](C)O)[C@H](C)O [Peptide D24, Ac-KLKSLLKTLSKLKKKKLKTLLKLLSK-amide] | 3.9 |  |  |  |  | 1.9 | 123 | 
CC(=O)N[C@H](CCCCN)C(=O)N[C@H](CC(C)C)C(=O)N[C@H](CCCCN)C(=O)N[C@H](CO)C(=O)N[C@H](CC(C)C)C(=O)N[C@H](CC(C)C)C(=O)N[C@H](CCCCN)C(=O)N[C@@H](C(=O)N[C@H](CC(C)C)C(=O)N[C@H](CO)C(=O)N[C@H](CCCCN)C(=O)N[C@H](C)C(=O)N[C@H](CCCCN)C(=O)N[C@H](CCCCN)C(=O)N[C@H](CCCCN)C(=O)N[C@H](CC(C)C)C(=O)N[C@H](CC(C)C)C(=O)N[C@H](CCCCN)C(=O)N[C@@H](C(=O)N[C@H](C)C(=O)N[C@H](CC(C)C)C(=O)N[C@H](CCCCN)C(=O)N[C@H](C)C(=O)N[C@H](CC(C)C)C(=O)N[C@H](CO)C(=O)N[C@H](CCCCN)C(N)=O)[C@H](C)O)[C@H](C)O [Peptide D15, Ac-KLKSLLKTLSKAKKKLLKTALKALSK-amide] | 1 |  | 8.1 (≈ 23.7 µg/mL) | 0.5 | 0.5 (≈ 1.46 µg/mL) | 0.5 | 169.6 | Hemolytic activity HC50 (human erythrocytes; 50% hemolysis after 18 hours at 37° C.): 170 µM; HC50 at 18 h ([1]; human erythrocytes, concentration of peptide that results in 50% hemolysis after 18 hours at 37° C., read-out: Hemolytic activity HC50): 170 µM
Ac-ELEKGGLEGEKGGKELEK-amide (Ac-ELEKGGLEGEKGGKELEK-NH2) [peptide C] |  |  |  |  |  |  |  | [θ]222 molar ellipticity ([3]; 50% TFE, 5° C.): −3,950
CC[C@@H](C)[C@@H](NC(=O)[C@@H](C)NC(=O)[C@@H](CCCCN)NC(=O)[C@@H](CC(C)C)NC(=O)[C@@H](CC(C)C)NC(=O)[C@H](NC(=O)[C@@H](CCCCN)NC(=O)[C@@H](CC(C)C)NC(=O)[C@@H](CCCCN)NC(=O)[C@@H](CCCCN)NC(=O)[C@@H](CCCCN)NC(=O)[C@@H](CCCCN)NC(=O)[C@@H](C)NC(=O)[C@@H](CCCCN)NC(=O)[C@@H](CO)NC(=O)[C@@H](Cc1ccccc1)NC(=O)[C@H](NC(=O)[C@@H](CCCCN)NC(=O)[C@@H](CC(C)C)NC(=O)[C@@H](Cc1ccccc1)NC(=O)[C@@H](CO)NC(=O)[C@@H](CCCCN)NC(=O)[C@@H](Cc1c[nH]c2ccccc12)NC(=O)[C@@H](CCCCN)NC(C)=O)[C@H](C)O)[C@H](C)O)C(=O)N[C@H](CO)C(=O)N[C@H](CCCCN)C(N)=O [Peptide D14, Ac-KWKSFLKTFSKAKKKKLKTLLKAISK-amide] | 2.5 | 352 | 40.1 (≈ 125 µg/mL) | 0.8 | 0.8 (≈ 2.5 µg/mL) | 0.8 | 351.5 | 
CC[C@@H](C)[C@@H](NC(=O)[C@@H](C)NC(=O)[C@@H](CCCCN)NC(=O)[C@@H](CC(C)C)NC(=O)[C@@H](C)NC(=O)[C@H](NC(=O)[C@@H](CCCCN)NC(=O)[C@@H](CC(C)C)NC(=O)[C@H](NC(=O)[C@@H](CCCCN)NC(=O)[C@@H](CCCCN)NC(=O)[C@@H](CCCCN)NC(=O)[C@@H](C)NC(=O)[C@@H](CCCCN)NC(=O)[C@@H](CO)NC(=O)[C@@H](Cc1ccccc1)NC(=O)[C@H](NC(=O)[C@@H](CCCCN)NC(=O)[C@@H](CC(C)C)NC(=O)[C@@H](Cc1ccccc1)NC(=O)[C@@H](CO)NC(=O)[C@@H](CCCCN)NC(=O)[C@@H](Cc1c[nH]c2ccccc12)NC(=O)[C@@H](CCCCN)NC(C)=O)[C@H](C)O)C(C)C)[C@H](C)O)C(=O)N[C@H](CO)C(=O)N[C@H](CCCCN)C(N)=O [Peptide D11, Ac-KWKSFLKTFSKAKKKVLKTALKAISK-amide] | 1.6 | 254 | 14.0 (≈ 42.7 µg/mL) | 0.6 | 0.6 (≈ 1.83 µg/mL) | 0.6 | 254.1 | 
CC[C@H](C)[C@H](NC(=O)[C@H](C)NC(=O)[C@H](CCCCN)NC(=O)[C@H](CC(C)C)NC(=O)[C@H](C)NC(=O)[C@@H](NC(=O)[C@H](Cc1c[nH]cn1)NC(=O)[C@H](CC(C)C)NC(=O)[C@@H](NC(=O)[C@@H](NC(=O)[C@H](CCCCN)NC(=O)[C@H](CC(C)C)NC(=O)[C@H](C)NC(=O)[C@H](CO)NC(=O)[C@H](CCCCN)NC(=O)[C@H](Cc1ccccc1)NC(=O)[C@@H](NC(=O)[C@H](CCCCN)NC(=O)[C@H](CC(C)C)NC(=O)[C@H](Cc1ccccc1)NC(=O)[C@H](CO)NC(=O)[C@H](CCCCN)NC(=O)[C@H](Cc1c[nH]c2ccccc12)NC(=O)[C@H](CCCCN)NC(C)=O)[C@@H](C)O)[C@@H](C)O)C(C)C)[C@@H](C)O)C(=O)N[C@@H](CO)C(=O)N[C@@H](CO)C(N)=O [NLL] (Ac-KWKSFLKTFKSALKTVLHTALKAISS-NH2) |  |  |  |  |  |  |  | MIC against Gram-negative bacteria (Gram-negative bacteria): 12.7 µg/mL (≈ 4.27 µM)
